Holding throughout (assay): MIC by agar dilution method in Mueller Hinton agar
Type in all cases: cell-based

The test system of one assay is Acinetobacter sp. 51-156. As to conditions: SP.51156. The protocol: (§1) In vitro activity was determined by minimum inhibitory concentration in a microorganism spectrum by the agar dilution method in Mueller Hinton agar.
In another assay the test system is B. fragilis ATCC25285. To be noted: Bacteroides fragilis. The method, then:
as §1

The test system of a further assay is C. difficile ZH1. To be noted: Clostridioides difficile, ZH1. The protocol:
as §1

Another assay relates to C. freundii 43. As to conditions: Citrobacter freundii, 43. The protocol: as §1
In a further assay the test system is E. cloacae 908R. To be noted: Enterobacter cloacae. The protocol:
as §1

For a further assay, the system named is E. cloacae 908SSi. To be noted: Enterobacter cloacae, 908SSI. The protocol: as §1
In a further assay the test system is E. faecalis 6. As to conditions: Enterococcus faecalis. The protocol:
as §1

A further assay deals with H. influenzae 1. As to conditions: Haemophilus influenzae. The protocol: as §1
The test system of another assay is L. monocytogenes BK23. To be noted: Listeria monocytogenes, BK23. The protocol: as §1
The subject of a further assay is M. catarrhalis RA21. As to conditions: Moraxella catarrhalis. The protocol: as §1
A further assay has as its system P. aeruginosa 27853. To be noted: Pseudomonas aeruginosa. The method, then: as §1
The subject of assay [1] is P. asaccharolyticus 29743. To be noted: Peptoniphilus asaccharolyticus. The protocol:
as §1

The test system of a further assay is P. vulgaris 1028. To be noted: Proteus vulgaris. The protocol:
as §1

In the next assay the test system is S. agalactiae QK44. To be noted: Streptococcus agalactiae. The protocol:
as §1

For a further assay, the system named is S. aureus 6538. To be noted: Staphylococcus aureus, 6538. The protocol: as §1
In a further assay the test system is S. aureus 734 MRSA. To be noted: Staphylococcus aureus, MRSA. The method, then: as §1
The test system of another assay is S. marscescens 69438. The method, then:
as §1

The next assay has as its system S. pneumoniae Q19. As to conditions: Streptococcus pneumoniae. The method, then:
as §1

In another assay the test system is S. viridans group 016. As to conditions: Streptococcus viridans, GROUP016. The method, then: as §1
The next assay deals with X. maltophilia 1AC739. To be noted: Stenotrophomonas maltophilia. The method, then: as §1
A further assay has as its system C. freundii 902. To be noted: Citrobacter freundii. The method, then: as §1
A further assay has as its system E. coli 25922. As to conditions: Escherichia coli, 25922. The protocol: as §1
A further assay deals with K. pneumoniae 418. To be noted: Klebsiella pneumoniae. The protocol: as §1
The next assay concerns P. mirabilis 2117. To be noted: Proteus mirabilis. The protocol:
as §1

A further assay concerns M. morganii 6H-137. To be noted: Morganella morganii, 6H137. The protocol: as §1
Where [2] appears, read: K. pneumoniae 418, read-out: MIC.
The mark [3] stands for this setting: P. aeruginosa 27853, read-out: MIC.

This passage reports MIC results from patent US5804577A, “Cephalosporin derivatives” (Hoffmann-La Roche Inc., priority 1995, dated 1998).

In brackets after ≈: the same amount, converted by molar mass. Read-outs that look alike come from different tables or passages of the source.

`Nc1nc(/C(=N/O)C(=O)N[C@@H]2C(=O)N3C(C(=O)O)=C(/C=C4\CCN(c5ccc(O)cc5)C4=O)CS[C@H]23)cs1` [A, (6R,7R)-7-[(Z)-2-(2-Amino-thiazol-4-yl)-2-hydroxyimino-acetylamino]-3-[(E)-1-(4-hydroxy-phenyl)-2-oxo-pyrrolidin-3-ylidenemethyl]-8-oxo-5-thia-1-azabicyclo[4.2.0]oct-2-ene-2-carboxylic acid]: the MIC with Acinetobacter sp. 51-156 (Acinetobacter sp. 51-156, read-out: MIC) stood at 16 µg/mL (≈ 28.7 µM); against B. fragilis ATCC25285 (ATCC25285), 4 µg/mL (≈ 7.19 µM); against C. difficile ZH1, 8 µg/mL (≈ 14.4 µM); against C. freundii 43, 4 µg/mL (≈ 7.19 µM); in the assay on E. cloacae 908R (E. cloacae 908R, read-out: MIC), 16 µg/mL (≈ 28.7 µM); against E. cloacae 908SSi, 0.25 µg/mL (≈ 0.449 µM). For the same molecule, the MIC was 0.5 µg/mL (≈ 0.898 µM) in the assay on E. faecalis 6 (6); 0.25 µg/mL (≈ 0.449 µM) in the assay on H. influenzae 1; 4 µg/mL (≈ 7.19 µM) against L. monocytogenes BK23; 16 µg/mL (≈ 28.7 µM) in the assay with M. catarrhalis RA21 (M. catarrhalis RA21, read-out: MIC); 4 µg/mL (≈ 7.19 µM) in the assay with P. aeruginosa 27853 (27853); 0.25 µg/mL (≈ 0.449 µM) in assay [1]. For the same molecule, the MIC came out at 32 µg/mL (≈ 57.5 µM) in the assay on P. vulgaris 1028 (P. vulgaris 1028, read-out: MIC); 0.25 µg/mL (≈ 0.449 µM) against S. agalactiae QK44; 0.25 µg/mL (≈ 0.449 µM) in the assay on S. aureus 6538; 4 µg/mL (≈ 7.19 µM) against S. aureus 734 MRSA; 0.5 µg/mL (≈ 0.898 µM) against S. marscescens 69438; 0.12 µg/mL (≈ 0.216 µM) against S. pneumoniae Q19. The MIC against S. viridans group 016 is 0.25 µg/mL (≈ 0.449 µM); in the assay on X. maltophilia 1AC739 (X. maltophilia 1AC739, read-out: MIC) it was more than 32 µg/mL.
`Nc1nc(/C(=N/O)C(=O)N[C@@H]2C(=O)N3C(C(=O)O)=C(/C=C4\CCN(c5cccc([N+](=O)[O-])c5)C4=O)CS[C@H]23)cs1` [B]: the MIC was 16 µg/mL (≈ 27.3 µM) against Acinetobacter sp. 51-156 (Acinetobacter); 2 µg/mL (≈ 3.42 µM) against B. fragilis ATCC25285 (ATCC25285); 16 µg/mL (≈ 27.3 µM) in the assay on C. difficile ZH1; 1 µg/mL (≈ 1.71 µM) against C. freundii 43; 0.12 µg/mL (≈ 0.205 µM) against C. freundii 902 (902); 2 µg/mL (≈ 3.42 µM) with E. cloacae 908R (908R). Further, the MIC was 0.25 µg/mL (≈ 0.427 µM) in the assay on E. cloacae 908SSi; 0.12 µg/mL (≈ 0.205 µM) in the assay on E. coli 25922; 0.25 µg/mL (≈ 0.427 µM) with E. faecalis 6 (E. faecalis 6, read-out: MIC); 0.5 µg/mL (≈ 0.854 µM) in the assay on H. influenzae 1; 0.25 µg/mL (≈ 0.427 µM) in the assay on K. pneumoniae 418 (setting [2]); 4 µg/mL (≈ 6.83 µM) with L. monocytogenes BK23. Also, the MIC against M. catarrhalis RA21 (RA21) is more than 16 µg/mL; in the assay on P. aeruginosa 27853 (27853), 16 µg/mL (≈ 27.3 µM); against P. mirabilis 2117 (2117), 0.12 µg/mL (≈ 0.205 µM); in the assay with P. vulgaris 1028 (1028), 16 µg/mL (≈ 27.3 µM); against S. agalactiae QK44, 0.5 µg/mL (≈ 0.854 µM); in the assay on S. aureus 6538, 0.25 µg/mL (≈ 0.427 µM). The MIC in the assay on S. aureus 734 MRSA is 4 µg/mL (≈ 6.83 µM); in the assay on S. marscescens 69438, 1 µg/mL (≈ 1.71 µM); with S. viridans group 016 it was 1 µg/mL (≈ 1.71 µM); in the assay on X. maltophilia 1AC739 (1AC739), more than 32 µg/mL.
As for `Nc1nc(/C(=N/O)C(=O)N[C@@H]2C(=O)N3C(C(=O)O)=C(/C=C4\CCN(Cc5nc6ccccc6[nH]5)C4=O)CS[C@H]23)cs1` [H, (6R,7R)-7-[(Z)-2-(2-Amino-thiazol-4-yl)-2-hydroxyimino-acetylamino]-3-[(E)-1-(1H-benzimidazol-2-ylmethyl)-2-oxo-pyrrolidin-3-ylidenemethyl]-8-oxo-5-thia-1-aza-bicyclo[4.2.0]oct-2-ene-2-carboxylic acid trifluoracetate (1:1:1)], the MIC is more than 32 µg/mL in the assay with Acinetobacter sp. 51-156 (Acinetobacter); 8 µg/mL (≈ 13.5 µM) in the assay on B. fragilis ATCC25285 (B. fragilis ATCC25285, read-out: MIC); 16 µg/mL (≈ 26.9 µM) against C. difficile ZH1; 2 µg/mL (≈ 3.36 µM) against C. freundii 43; 0.12 µg/mL (≈ 0.202 µM) in the assay with C. freundii 902 (C. freundii 902, read-out: MIC); 4 µg/mL (≈ 6.73 µM) against E. cloacae 908R (908R). Moreover, the MIC against E. cloacae 908SSi stood at 0.5 µg/mL (≈ 0.841 µM); in the assay with E. coli 25922 it was 0.12 µg/mL (≈ 0.202 µM); in the assay on E. faecalis 6 (6), 2 µg/mL (≈ 3.36 µM); in the assay on K. pneumoniae 418 (setting [2]), 0.12 µg/mL (≈ 0.202 µM); with L. monocytogenes BK23, 4 µg/mL (≈ 6.73 µM); against M. catarrhalis RA21 (RA21) it was 4 µg/mL (≈ 6.73 µM). The MIC against M. morganii 6H-137 was 0.25 µg/mL (≈ 0.42 µM); with P. aeruginosa 27853 (setting [3]) it was more than 32 µg/mL; in assay [1], 1 µg/mL (≈ 1.68 µM); in the assay on P. mirabilis 2117 (P. mirabilis 2117, read-out: MIC), 0.25 µg/mL (≈ 0.42 µM); against P. vulgaris 1028 (1028) it was 16 µg/mL (≈ 26.9 µM); with S. agalactiae QK44, 0.25 µg/mL (≈ 0.42 µM). Further, the MIC is 1 µg/mL (≈ 1.68 µM) against S. aureus 6538; 8 µg/mL (≈ 13.5 µM) in the assay on S. aureus 734 MRSA; 1 µg/mL (≈ 1.68 µM) in the assay on S. marscescens 69438; 0.5 µg/mL (≈ 0.841 µM) in the assay with S. viridans group 016; more than 32 µg/mL in the assay with X. maltophilia 1AC739 (1AC739).
As for `C=CC1=C(C(=O)O)N2C(=O)[C@@H](NC(=O)/C(=N\O)c3csc(N)n3)[C@H]2SC1` [I, [6R[6a,7b(Z)]7-(2-Amino-4-thiazolyl)[(hydroxyimino)]acetyl]amino3-ethenyl 8-oxo-5-thia-1-azabicyclo-[4.2.0]oct2-ene-2-carboxylic acid, reference compound], the MIC in the assay on Acinetobacter sp. 51-156 (Acinetobacter) is more than 32 µg/mL; against C. freundii 43 it was more than 32 µg/mL; against C. freundii 902 (902) it was 16 µg/mL (≈ 40.5 µM); in the assay on E. cloacae 908R (908R) it was more than 32 µg/mL; with E. cloacae 908SSi it was 32 µg/mL (≈ 80.9 µM); against E. coli 25922, 0.25 µg/mL (≈ 0.632 µM). Also, the MIC in the assay with E. faecalis 6 (6) stood at 8 µg/mL (≈ 20.2 µM); against H. influenzae 1, 0.5 µg/mL (≈ 1.26 µM); against K. pneumoniae 418 (418), 0.12 µg/mL (≈ 0.303 µM); in the assay on L. monocytogenes BK23, 16 µg/mL (≈ 40.5 µM); in the assay with M. catarrhalis RA21 (RA21), 1 µg/mL (≈ 2.53 µM); against M. morganii 6H-137, 8 µg/mL (≈ 20.2 µM). Moreover, the MIC in the assay on P. aeruginosa 27853 (setting [3]) was more than 32 µg/mL; in the assay with P. mirabilis 2117 (2117) it was 0.12 µg/mL (≈ 0.303 µM); against P. vulgaris 1028 (1028) it was 1 µg/mL (≈ 2.53 µM); in the assay on S. agalactiae QK44, 0.25 µg/mL (≈ 0.632 µM); with S. aureus 6538, 0.5 µg/mL (≈ 1.26 µM); in the assay on S. aureus 734 MRSA, more than 32 µg/mL. Further, the MIC was 16 µg/mL (≈ 40.5 µM) with S. marscescens 69438, 0.25 µg/mL (≈ 0.632 µM) against S. pneumoniae Q19, 2 µg/mL (≈ 5.06 µM) in the assay on S. viridans group 016 and more than 32 µg/mL in the assay on X. maltophilia 1AC739 (1AC739).
